# Results reported in US8957017B2, “Dipeptoid prodrugs and their use” (Bayer Intellectual Property GmbH, priority 2007, dated 2015).
# Structures can show the parent of a compound that is named as a salt.
# Experiments:
# [1] = Determination of the solubility in 5% strength aqueous dextrose solution; format: physicochemical; conditions: saline or isotonic, thermodynamic from solid, room temperature, 24 h
# Procedure: a) Determination of the Solubility:
# The test substance is suspended in 5% strength aqueous dextrose solution. This suspension is shaken at room temperature for 24 h. After ultracentrifugation at 224 000 g for 30 min, the supernatant is diluted with DMSO and analysed by HPLC. A two-point calibration plot of the test compound in DMSO is used for quantification.
# Agilent 1100 with DAD (G1315A), quat. Pump (G1311A), autosampler CTC HTS PAL, degasser (G1322A) and column thermostat (G1316A); column: Phenomenex Gemini C18, 5 μm, 50 mm×2 mm; temperature: 40° C.; eluent A: water/phosphoric acid pH 2, eluent B: acetonitrile; flow rate: 0.7 ml/min; gradient: 0-0.5 min 85% A, 15% B; ramp 0.5-3 min 10% A, 90% B; 3-3.5 min 10% A, 90% B; ramp 3.5-4 min 85% A, 15% B; 4-5 min 85% A, 15% B.
# Agilent 1100 with DAD (G1315A), quat. pump (G1311A), autosampler CTC HTS PAL, degasser (G1322A) and column thermostat (G1316A); column: VDSoptilab Kromasil 100 C18, 3.5 μm, 60 mm×2.1 mm; temperature: 30° C.; eluent A: water+5 ml of perchloric acid/liter, eluent B: acetonitrile; flow rate: 0.75 ml/min; gradient: 0-0.5 min 98% A, 2% B; ramp 0.5-4.5 min 10% A, 90% B; 4.5-6 min 10% A, 90% B; ramp 6.5-6.7 min 98% A, 2% B; 6.7-7.5 min 98% A, 2% B.
# [2] = Stability in buffer at various pH values; format: physicochemical
# Procedure: b) Stability in Buffer at Various pH Values:
# 0.3 mg of the test substance is weighed into a 2 ml HPLC vial and 0.5 ml of acetonitrile or acetonitrile/DMSO (9:1) is added. The substance is dissolved by putting the sample vessel in an ultrasonic bath for about 10 seconds. Then 0.5 ml of the respective buffer solution is added, and the sample is again treated in the ultrasonic bath.
# pH 2: 0.03 mol of citric acid, 0.061 mol of sodium chloride and 0.0082 mol of hydrochoric acid ad 1 liter of water;
# pH 4: 1 liter of Millipore water is adjusted to pH 4.0 with 1 N hydrochloric acid;
# pH 5: 0.096 mol of citric acid and 0.2 mol of sodium hydroxide ad 1 liter of water;
# pH 6: 0.06 mol of citric acid and 0.16 mol of sodium hydroxide ad 1 liter of water;
# pH 7.4: 90.0 g of sodium chloride, 13.61 g of potassium dihydrogen phosphate and 83.35 g of 1 N sodium hydroxide solution are made up to 1 liter with water; this solution is then further diluted 1:10 with Millipore water.
# pH 8: 0.013 mol of borax and 0.021 mol of hydrochloric acid ad 1 liter of water.
# 5 μl portions of the test solution are analyzed by HPLC for their content of unchanged test substance, and of parent substance (A) produced, every hour over a period of 24 hours at 37° C. The percentage areas of the appropriate peaks are used for quantification.
# The ratios of the peak areas (F) at the respective time points in relation to the peak areas at the starting time are shown in Table 2 for representative exemplary embodiments: […]
# [3] = Oral pharmacokinetics in Wistar rats; format: in vivo; conditions: after oral administration by gavage, male Wistar rats
# Procedure: e) Oral Pharmacokinetics in Wistar Rats:
# (§1) On the day before administration of the substance, a catheter for obtaining blood is implanted in the jugular vein of the experimental animals (male Wistar rats, body weight 200-250 g) under Isofluran® anesthesia.
# (§2) On the day of the experiment, a defined dose of the test substance is administered as solution into the stomach by gavage. Blood samples (8-12 time points) are taken through the catheter sequentially over the course of 24 h after administration of the substance. Plasma is obtained by centrifuging the samples in heparinized tubes. Acetonitrile is added to a defined plasma volume per time point to precipitate proteins. After centrifugation, test substance and, where appropriate, known cleavage products of the test substance in the supernatant are determined quantitatively using a suitable LC/MS-MS method.
# The measured plasma concentrations are used to calculate pharmacokinetic parameters of the test substance and of the active ingredient compound (A) liberated therefrom, such as AUC, Cmax, T1/2 (half-life).
# [4] = i.v. pharmacokinetics in Wistar rats; format: in vivo; conditions: after i.v. bolus administration, male Wistar rats
# Procedure: d) i.v. Pharmacokinetics in Wistar Rats:
# as §1
# as §2, with “tail vein using a Hamilton® glass syringe (bolus administration, duration of administration <10 s).” for “stomach by gavage.”
# The measured plasma concentrations are used to calculate pharmacokinetic parameters of the test substance and of the active ingredient compound (A) liberated therefrom, such as AUC, Cmax, T1/2 (half-life) and CL (clearance).
# [5] = system: heart rate of anesthetized rats; assay: Influence on the heart rate of anesthetized rats; format: in vivo; conditions: maximum decrease in the first 30 min after i.v. bolus of 100 μg/kg of (A) or equivalent dosages; anesthetized male Wistar rats
# Procedure: f) Determination of the Influence on the Heart Rate of Anesthetized Rats:
# Male Wistar rats with a body weight above 250 g are employed. In the night before the experiment, the animals receive no feed but still have free access to drinking water. Preparation and investigations are carried out under Trapanal® anesthesia (100 mg/kg i.p.). Injection and infusion take place through a catheter in the jugular vein, and the blood pressure is recorded via a catheter in the femoral artery (transducer: Braun, Melsungen). After the preparation, the animals are connected to a continuous infusion of physiological saline solution to compensate fluid losses. Test substance or placebo solution are administered as bolus after an equilibration time of about 1 h. Heart rate and arterial blood pressure are recorded during the equilibration and over a period of at least 30 min after the bolus injection with the aid of a digital evaluation program.
# Table 4 lists the maximum heart rate decrease in the first 30 min after an i.v. bolus of 100 μg/kg of the active substance (A) or of equivalent dosages of representative exemplary embodiments: […]
solubility thermodynamic at 24 h [1] [µg/mL],"% test substance after 4 h [F(t = 4 h) × 100/F(t = 0 h)] ([2]; pH 4, 37° C.) [%]","% test substance after 24 h [F(t = 24 h) × 100/F(t = 0 h)] ([2]; pH 4, 37° C.) [%]","% test substance after 4 h [F(t = 4 h) × 100/F(t = 0 h)] ([2]; pH 5, 37° C.) [%]","% test substance after 24 h [F(t = 24 h) × 100/F(t = 0 h)] ([2]; pH 5, 37° C.) [%]","% test substance after 4 h [F(t = 4 h) × 100/F(t = 0 h)] ([2]; pH 6, 37° C.) [%]","% test substance after 24 h [F(t = 24 h) × 100/F(t = 0 h)] ([2]; pH 6, 37° C.) [%]","% test substance after 4 h [F(t = 4 h) × 100/F(t = 0 h)] ([2]; pH 7.4, 37° C.) [%]","% test substance after 24 h [F(t = 24 h) × 100/F(t = 0 h)] ([2]; pH 7.4, 37° C.) [%]","% test substance after 4 h [F(t = 4 h) × 100/F(t = 0 h)] ([2]; pH 8, 37° C.) [%]","% test substance after 24 h [F(t = 24 h) × 100/F(t = 0 h)] ([2]; pH 8, 37° C.) [%]","% test substance after 4 h [F(t = 4 h) × 100/F(t = 0 h)] ([2]; pH 2, 37° C.) [%]","% test substance after 24 h [F(t = 24 h) × 100/F(t = 0 h)] ([2]; pH 2, 37° C.) [%]",SMILES,detectability of test substance in plasma [3],detectability of test substance in plasma [4],Heart rate decrease [5] [%]
> 500,100,100,,,100,100,99,96,99,90,,,"CC(C)[C@H](NC(=O)[C@@H](N)CCCCN)C(=O)OCCOc1ccc(-c2c(C#N)c(N)nc(SCc3csc(-c4ccc(Cl)cc4)n3)c2C#N)cc1 [Example 1, 2-{4-[2-Amino-6-({[2-(4-chlorophenyl)-1,3-thiazol-4-yl]methyl}thio)-3,5-dicyanopyridin-4-yl]-phenoxy}ethyl L-lysyl-L-valinate dihydrochloride]",,,10
> 500,100,100,100,98,97,84,48,2,,,,,"C[C@H](NC(=O)[C@@H](N)CCCCN)C(=O)OCCOc1ccc(-c2c(C#N)c(N)nc(SCc3csc(-c4ccc(Cl)cc4)n3)c2C#N)cc1 [Example 4, 2-{4-[2-Amino-6-({[2-(4-chlorophenyl)-1,3-thiazol-4-yl]methyl}thio)-3,5-dicyanopyridin-4-yl]-phenoxy}ethyl L-lysyl-L-alaninate dihydrochloride]",no longer detectable in plasma even at the first measurement point,no longer detectable in plasma even at the first measurement point,19

# The next lines start with the compound.
SMILES,solubility thermodynamic at 24 h [1] [µg/mL],"% test substance after 4 h [F(t = 4 h) × 100/F(t = 0 h)] ([2]; pH 4, 37° C.) [%]","% test substance after 24 h [F(t = 24 h) × 100/F(t = 0 h)] ([2]; pH 4, 37° C.) [%]","% test substance after 4 h [F(t = 4 h) × 100/F(t = 0 h)] ([2]; pH 5, 37° C.) [%]","% test substance after 24 h [F(t = 24 h) × 100/F(t = 0 h)] ([2]; pH 5, 37° C.) [%]","% test substance after 4 h [F(t = 4 h) × 100/F(t = 0 h)] ([2]; pH 6, 37° C.) [%]","% test substance after 24 h [F(t = 24 h) × 100/F(t = 0 h)] ([2]; pH 6, 37° C.) [%]","% test substance after 4 h [F(t = 4 h) × 100/F(t = 0 h)] ([2]; pH 7.4, 37° C.) [%]","% test substance after 24 h [F(t = 24 h) × 100/F(t = 0 h)] ([2]; pH 7.4, 37° C.) [%]","% test substance after 4 h [F(t = 4 h) × 100/F(t = 0 h)] ([2]; pH 8, 37° C.) [%]","% test substance after 24 h [F(t = 24 h) × 100/F(t = 0 h)] ([2]; pH 8, 37° C.) [%]","% test substance after 4 h [F(t = 4 h) × 100/F(t = 0 h)] ([2]; pH 2, 37° C.) [%]","% test substance after 24 h [F(t = 24 h) × 100/F(t = 0 h)] ([2]; pH 2, 37° C.) [%]",detectability of test substance in plasma [3],detectability of test substance in plasma [4],Heart rate decrease [5] [%]
"N#Cc1c(N)nc(SCc2csc(-c3ccc(Cl)cc3)n2)c(C#N)c1-c1ccc(OCCOC(=O)[C@H](CO)NC(=O)[C@@H](N)CCCCN)cc1 [Example 5, 2-{4-[2-Amino-6-({[2-(4-chlorophenyl)-1,3-thiazol-4-yl]methyl}thio)-3,5-dicyanopyridin-4-yl]-phenoxy}ethyl L-lysyl-L-serinate dihydrochloride]",> 500,100,100,100,98,95,70,,,,,,,no longer detectable in plasma even at the first measurement point,no longer detectable in plasma even at the first measurement point,12
"N#Cc1c(N)nc(SCc2csc(-c3ccc(Cl)cc3)n2)c(C#N)c1-c1ccc(OCCOC(=O)[C@@H](N)CCC(=O)NCCN)cc1 [Example 7, dihydrochloride]",100,100,98,,,,,51,2,,,,,,no longer detectable in plasma even at the first measurement point,15
"N#Cc1c(N)nc(SCc2csc(-c3ccc(Cl)cc3)n2)c(C#N)c1-c1ccc(OCCOC(=O)CC[C@H](N)C(=O)NCCN)cc1 [Example 6, 2-{4-[2-Amino-6-({[2-(4-chlorophenyl)-1,3-thiazol-4-yl]methyl}thio)-3,5-dicyanopyridin-4-yl]-phenoxy}ethyl N-(2-aminoethyl)-L-α-glutaminate dihydrochloride]",> 500,100,100,96,80,78,25,8,0,,,100,100,no longer detectable in plasma even at the first measurement point,no longer detectable in plasma even at the first measurement point,17
